How the values were obtained:
α1A adrenoceptor = molecular target: T1, α1A adrenoceptor (Rattus norvegicus, UniProt P43140); experiment: Radioligand binding, [3H] prazosin displacement, rat submaxillary membranes; settings: for Ki: [3H] prazosin displacement, rat submaxillary membranes, read-out: Affinity (Ki) α1A (Rat Submaxillary); for α1B/α1A: ratio of binding affinities, rat liver / rat submaxillary
T1 construct: from tissue; host or cells: rat submaxillary gland membranes
T1 sequence (P43140 1-466): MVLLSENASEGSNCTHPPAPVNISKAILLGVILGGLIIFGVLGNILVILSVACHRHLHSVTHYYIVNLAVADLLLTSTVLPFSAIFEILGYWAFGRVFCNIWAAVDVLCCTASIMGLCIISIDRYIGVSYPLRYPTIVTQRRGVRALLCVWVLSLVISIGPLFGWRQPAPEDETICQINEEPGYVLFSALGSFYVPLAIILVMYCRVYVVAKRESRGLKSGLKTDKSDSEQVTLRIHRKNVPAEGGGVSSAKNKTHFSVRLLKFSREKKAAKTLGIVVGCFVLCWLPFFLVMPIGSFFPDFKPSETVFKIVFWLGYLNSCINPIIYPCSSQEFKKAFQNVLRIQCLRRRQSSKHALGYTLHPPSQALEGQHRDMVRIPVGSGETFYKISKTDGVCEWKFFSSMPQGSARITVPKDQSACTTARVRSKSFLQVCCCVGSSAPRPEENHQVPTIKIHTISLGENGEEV
Outline: (§1)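 Displacement of [3H]prazosin measured by filtration and counting, with Ki from IC50 via Cheng–Prusoff and nonspecific binding set by 300 nM prazosin. Native rat submaxillary (α1A) or liver (α1B) membranes, 150-250 μg protein, 1 h at 24-25° C in Tris/EDTA pH 7.4.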

α1B adrenoceptor = molecular target: T2, α1B adrenoceptor (Rattus norvegicus, UniProt P15823); experiment: Radioligand binding, [3H] prazosin displacement, rat liver membranes; settings: read-out: Affinity (Ki) α1B (Rat Liver)
T2 construct: from tissue; host or cells: rat liver membranes
T2 sequence (P15823 1-515): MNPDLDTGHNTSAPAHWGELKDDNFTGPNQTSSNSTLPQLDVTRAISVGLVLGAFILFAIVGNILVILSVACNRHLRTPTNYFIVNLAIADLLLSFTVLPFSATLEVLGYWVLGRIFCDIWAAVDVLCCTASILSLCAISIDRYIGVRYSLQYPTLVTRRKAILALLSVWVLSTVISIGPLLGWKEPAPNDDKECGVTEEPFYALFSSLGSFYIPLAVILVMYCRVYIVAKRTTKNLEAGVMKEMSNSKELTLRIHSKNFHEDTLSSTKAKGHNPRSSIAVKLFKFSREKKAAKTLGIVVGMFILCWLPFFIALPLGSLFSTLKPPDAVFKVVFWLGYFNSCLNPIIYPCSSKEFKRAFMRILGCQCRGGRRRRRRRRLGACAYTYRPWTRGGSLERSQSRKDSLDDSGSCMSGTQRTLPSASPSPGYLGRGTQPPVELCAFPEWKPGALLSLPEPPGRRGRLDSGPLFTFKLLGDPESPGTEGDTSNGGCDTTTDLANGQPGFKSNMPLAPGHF
Outline: as §1

[1] = molecular target: T3, α1B adrenoceptor (spleen) (Rattus norvegicus, UniProt P15823); experiment: In vitro functional assay, isolated spleen, phenylepinephrine contraction; type: cell-based; settings: read-out: α Adrenoceptor Subtype (pKB) α1B (converted)
T3 construct: Isolated tissues were mounted in organ bath containing Krebs Henseleit buffer; from tissue; host or cells: isolated rat spleen
T3 sequence (P15823 1-515): T2 sequence (P15823 1-515)
Source text: In order to study selectivity of action of these compounds towards different a-adrenoceptor subtypes, the ability of these compounds to antagonise (α1D) prostate (α1A) and spleen (α1B) was studied. Aorta and spleen tissues were isolated from urethane anaesthetized (1.5 g/kg) male wister rats. Isolated tissues were mounted in organ bath containing Krebs Henseleit buffer of the following composition (mM): NaCl 118; KCl 4.7; CaCl2 2.5; MgSO4 7H2O 1.2; NaHCO3 25; KH2PO4 1.2; glucose 11.5. Buffer was maintained at 37° C. and aereated with a mixture of 95% O2 and 5% CO2. A resting tension of 2 g (aorta) or 1 g (spleen and prostate) was applied to tissues. Contractile response was monitored using a force displacement transducer and recorded on chart recorders. Tissues were allowed to equilibrate for 2 hours. At the end of equilibration period, concentration response curves to norepinephrine (aorta) and phenylepinephrine (spleen and prostate) were obtained in the absence and presence of tested compound (at concentration of […]). Antagonist affinity was calculated and expressed as pKB values in Table II.

α1D adrenoceptor (aorta) = molecular target: T4, α1D adrenoceptor (aorta) (Rattus norvegicus, UniProt P23944); experiment: In vitro functional assay, isolated aorta, norepinephrine contraction; type: cell-based; settings: read-out: α Adrenoceptor Subtype (pKB) α1D (converted)
T4 construct: Isolated tissues were mounted in organ bath containing Krebs Henseleit buffer; from tissue; host or cells: isolated rat aorta
T4 sequence (P23944 1-561): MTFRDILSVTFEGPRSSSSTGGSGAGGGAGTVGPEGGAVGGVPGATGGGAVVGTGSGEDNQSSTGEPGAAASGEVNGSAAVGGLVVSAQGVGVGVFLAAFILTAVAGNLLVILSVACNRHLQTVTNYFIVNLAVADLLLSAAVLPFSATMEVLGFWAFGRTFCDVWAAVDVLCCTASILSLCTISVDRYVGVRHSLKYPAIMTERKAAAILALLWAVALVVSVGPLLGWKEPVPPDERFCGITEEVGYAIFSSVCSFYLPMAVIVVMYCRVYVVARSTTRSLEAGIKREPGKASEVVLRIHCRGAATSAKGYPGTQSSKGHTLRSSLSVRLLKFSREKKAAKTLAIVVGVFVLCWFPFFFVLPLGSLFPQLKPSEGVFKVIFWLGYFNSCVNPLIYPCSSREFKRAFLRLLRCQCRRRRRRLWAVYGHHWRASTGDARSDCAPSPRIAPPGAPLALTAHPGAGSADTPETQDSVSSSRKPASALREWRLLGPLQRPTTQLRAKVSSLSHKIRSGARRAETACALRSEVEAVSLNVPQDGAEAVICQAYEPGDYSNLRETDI
Outline: (§2)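 Rat aorta, spleen and prostate strips from urethane-anaesthetised male Wistar rats in Krebs-Henseleit at 37 °C (95% O2/5% CO2), 2 g or 1 g resting tension, 2 h equilibration. Norepinephrine (aorta) or phenylephrine (spleen, prostate) contraction curves run without and with compound at […]; antagonist affinity given as pKB.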

[2] = molecular target: T5, α1A adrenoceptor (prostate) (Rattus norvegicus, UniProt P43140); experiment: In vitro functional assay, isolated prostate, phenylepinephrine contraction; type: cell-based; settings: for Selectivity α1B/α1A / Selectivity α1D/α1A: functional, from pKB; for Kb: rat prostate, phenylepinephrine, read-out: α Adrenoceptor Subtype (pKB) α1A (converted)
T5 construct: from tissue; host or cells: isolated prostate tissue
T5 sequence (P43140 1-466): T1 sequence (P43140 1-466)
Outline: as §2

α1-adrenoceptor = settings: background statement; cited from earlier work

SMILES | Ki (α1A adrenoceptor) [nM] | α1B/α1A (α1A adrenoceptor) | Ki (α1B adrenoceptor) [nM] | melting point [°C] | Kb [1] [nM] | Kb (α1D adrenoceptor (aorta)) [nM] | Selectivity α1B/α1A [2] | Selectivity α1D/α1A [2] | Kb [2] [nM] | α1-adrenergic blocking activity (pKi) (α1-adrenoceptor)
CC(C)Oc1ccccc1N1CCN(CCCN2C(=O)C3CC=CC(O)C3C2=O)CC1.Cl (stereo not shown) [Compound No. 41, 2-[3-{4-(2-Isopropoxyphenyl)piperazin-1-yl}propyl]-4-hydroxy-3a,4,7,7a-tetrahydro-1H-isoindole-1,3(2H)-dione hydrochloride] | 0.3 | 350 | 105 | 186 to 190 | 67.6 | 2.45 | 132 | 4.8 | 0.513 | –
CCOc1ccccc1N1CC[N+]([O-])(CCCN2C(=O)C3CC=CCC3C2=O)CC1 (stereo not shown) [compound 04, 2-[3-{4-(2-Ethoxyphenyl)piperazin-1-yl, 1-N-oxide}propyl]-3a,4,7,7a-tetrahydro-1H-isoindole-1,3(2H)-dione] | 22 | >45 | > 1000 | 75 to 80 | 7.08 | 81.3 | 2.9 | 33 | 2.45 | –
COc1cc2nc(N3CCN(C(=O)c4ccco4)CC3)nc(N)c2cc1OC [prazosin] | – | – | – | – | – | – | – | – | – | > 8

From patent US20050228180A1, “Alpha, omega-dicarboximide derivatives as useful uro-selective a1a adrenoceptor blockers” (priority 2002, published 2005)
